Patent publication EP4682141A1, “TRICYCLIC COMPOUND” (ONO Pharmaceutical Co., Ltd., priority 2023, dated 2024)

Experiments:
[1] = test system: Alport syndrome model mice; test: in vivo drug efficacy in Alport syndrome model mice; design: species or system COL4A5 homozygote knockout mice; conditions: 16 weeks after the start of administration
Procedure: The in vivo drug efficacy of the present compound on Alport syndrome was evaluated using COL4A5 (causative gene of Alport syndrome) knockout mice.
Male wild-type mice and female COL4A5 hetero knockout mice were naturally crossed to obtain offspring. Genotypes of the offspring were confirmed and male COL4A5 homozygote knockout mice were obtained.
The obtained animals were fed ad libitum with CE-2 (CLEA Japan), and watered ad libitum.
The mice were divided into groups using a statistical analysis system EXSUS10.0 so that the body weight and the urine albumin/urine creatinine value at the time of 6 weeks of age were almost uniform in each group.
The test substance and water for injection (Otsuka Pharmaceutical) as a vehicle were orally administered at 10 mL/kg once a day for 17 weeks.
The Control-3 group was orally administered water for injection at 10 mL/kg once a day for 17 weeks. In the Control-4 group, water for injection and an administration solution of irbesartan which is a renin angiotensin system inhibitor were mixed in equal amounts at 5 mL/kg each, and orally administered once a day for 17 weeks.
The administration dose is described in Table 11.
Blood collection was performed by cutting the tail vein of the mice a little with a razor and using a hematocrit capillary. Blood was centrifuged to obtain plasma. Urine was collected for about 16 hours in a metabolic cage for mouse under conditions in which a solid feed and water can be freely taken. The obtained urine sample was centrifuged, and the supernatant was subjected to measurement. Urine albumin (U-ALB) and urine creatinine (U-CRE) concentrations were measured by an automatic analyzer Hitachi 7180 (Hitachi High-Tech), and the creatinine concentration in plasma was measured using LabAssay Creatinine (Fujifilm Wako Shibayagi).

[2] = test system: rat 5/6 kidney-removed model; test: in vivo drug efficacy on renal damage in rat 5/6 kidney-removed model; design: species or system Jcl: Wistar (Wistar) rats; conditions: after 8 weeks from the start of administration
From the text: The obtained urine sample was centrifuged, and the supernatant was subjected to measurement.

EP1 = molecular target: T1, EP1 (Homo sapiens, UniProt P34995); test: agonist activity on human EP1 receptor (intracellular calcium concentration, EP1-CHO cells); format: cell-based
T1 construct: expressed in transfected cells; host or cells: CHO (EP1-CHO)
T1 sequence (P34995 1-402): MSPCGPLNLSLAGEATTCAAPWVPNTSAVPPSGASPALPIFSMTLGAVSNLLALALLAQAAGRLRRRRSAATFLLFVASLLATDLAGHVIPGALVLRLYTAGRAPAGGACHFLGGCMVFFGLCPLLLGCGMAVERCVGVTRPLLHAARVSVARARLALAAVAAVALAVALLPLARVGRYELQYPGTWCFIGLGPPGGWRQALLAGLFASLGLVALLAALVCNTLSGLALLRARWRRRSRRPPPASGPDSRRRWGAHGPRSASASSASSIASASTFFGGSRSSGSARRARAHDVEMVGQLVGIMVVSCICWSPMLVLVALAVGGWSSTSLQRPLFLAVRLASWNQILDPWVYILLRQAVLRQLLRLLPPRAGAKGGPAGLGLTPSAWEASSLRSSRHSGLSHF
How it was run: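 Calcium 6 dye loaded 1 h at room temperature in HBSS with 1% human serum albumin, 2 µmol/L indomethacin, 2.5 mmol/L probenecid, pH 7.4; agonists then added at various concentrations. Intracellular calcium read by fluorescence (ex 480/em 540 nm) in CHO cells expressing human EP1 or Chem1 cells expressing human EP3.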

SMILES	Plasma creatinine mean ([1]; 1 mg/kg orally once a day for 17 weeks, concomitant drug Irbesartan (50 mg/kg)) [mg/dL]	Plasma creatinine mean ([1]; 3 mg/kg orally once a day for 17 weeks, concomitant drug cell empty) [mg/dL]	Amount of albumin excreted in urine mean ([2]; 0.01 mg/kg orally once a day for 8 weeks) [mg/24 h]	Amount of albumin excreted in urine mean ([2]; 0.03 mg/kg orally once a day for 8 weeks) [mg/24 h]	EC50 (EP1) [µM]	Plasma creatinine mean ([1]; 0.1 mg/kg orally once a day for 17 weeks, single agent) [mg/dL]	Plasma creatinine mean ([1]; 0.3 mg/kg orally once a day for 17 weeks, single agent) [mg/dL]
Cc1c(C(=O)O)ccc2c1O[C@H]1C[C@@H](O)[C@H](/C=C/C[C@@](C)(O)CCCC(F)(F)F)[C@H]1CC2 [Example 12, (1R,2R,3aS,10aR)-2-hydroxy-5-methyl-1-[(1E,4S)-8,8,8-trifluoro-4-hydroxy-4-methyl-1-octen-1-yl]-2,3,3a,9,10,10a-hexahydro-1H-benzo[b]cyclopenta[f]oxepine-6-carboxylic acid]	0.709	0.722	66.09	44.16	3.5	–	–
CC(C)(c1ccccc1)C(O)/C=C/[C@H]1CC[C@@H]2Oc3c(ccc(C(=O)O)c3F)CC[C@@H]21 (stereo partly drawn) [Example 25-7, (1R,3aS,10aR)-5-fluoro-1-[(1E,3ξ)-3-hydroxy-4-methyl-4-phenyl-1-penten-1-yl]-2,3,3a,9,10,10a-hexahydro-1H-benzo[b]cyclopenta[f]oxepine-6-carboxylic acid]	–	–	–	–	> 10	0.758	0.628
